# Measurements reported in patent US20170217914A1, “Novel Triarylethylene Compounds and Methods Using Same” (The Penn State Research Foundation, priority 2014, published 2017).
# Like-named read-outs stand apart in the source and are kept apart here.
# Key:
# [1] = system: normal mouse embryonic fibroblast (MEF) cells; experiment: MTT cell viability assay, normal MEF cells; details: 48 h
# Description: (§3) An MTT solution was added to each well and incubated for 3 h at 37° C. After 3 h, DMSO was added and the optical density was measured at 570 nm using a 96-well multiscanner (Dynex Technologies, MRX Revelation; Chantilly, Va., USA). Backgrounds were subtracted at 630 nm. IC50 values were calculated by non-linear regression analysis using Prism software.
# [2] = system: MCF-7 cells; experiment: Live/Dead assay by flow cytometry, MCF-7 cells; assay type: cell-based, human; details: 24 h
# From the text: (§1) To measure cell death, the Live/Dead assay (Life technologies, USA) was used, which determines intracellular esterase activity and plasma membrane integrity (Pandey et al., 2013, PloS One 8:e78570). Nonfluorescent polyanionic dye calcein AM is retained by live cells and by enzymatic conversion (esterase) it becomes fluorescent, produces intense green fluorescence in live cells. Ethidium homodimer enters cells with damaged membranes and binds to nucleic acids, thereby producing a bright red fluorescence in dead cells. […] Cells were stained with the Live and Dead reagent (5 μM ethidium homodimer and 5 μM calcein-AM) and analyzed by flow cytometry according to the manufacture's protocols.
# [3] = system: MDA-MB-231 (ER-negative) human breast cancer cell line; experiment: MTT cell viability assay, MDA-MB-231 cells; details: for anticancer activity in initial screening: 0.5-25 μM, 48 h (FIG. 3); for times more cytotoxic than Tamoxifen / times more effective than Ospemifene: 96 h time point; for IC50: Homo sapiens, read-out: MDA-MB-231 (ER− negative) IC50
# Description: as §3
# (§4) The effects of novel triarylethylene derivatives on the cell viability were determined by the MTT uptake method using previously described methods (Kaur et al., 2014, Eur. J. Med. Chem. 86:211-218). Briefly, 3000 cells were incubated with various concentrations of compounds in triplicate in a 96-well plate for 72 h at 37° C. An MTT solution was added to each well and incubated for 3 h at 37° C. After 3 h, DMSO was added and the optical density was measured at 570 nm using a 96-well multiscanner (Dynex Technologies, MRX Revelation; Chantilly, Va., USA). Backgrounds were subtracted at 630 nm. IC50 values were calculated by non-linear regression analysis using Prism software.
# [4] = system: MCF-7 (ER-positive) human breast cancer cell line; experiment: MTT cell viability assay, MCF-7 cells; details: for anticancer activity in initial screening: 0.5-25 μM, 48 h (FIG. 3); for times more cytotoxic than Tamoxifen / times more effective than Ospemifene: 96 h time point; for IC50: Homo sapiens, read-out: MCF-7 (ER positive) IC50
# Description: as §3, §4
# [5] = system: MDA-MB-231 cells; experiment: Live/Dead assay by flow cytometry, MDA-MB-231 cells; assay type: cell-based, human; details: 24 h, 10 μM
# From the text: as §1
# [6] = system: MDA-MB-231 cells; experiment: In vitro Matrigel invasion assay; assay type: cell-based, human; details: dose dependent
# Description: Human breast cancer MDA-MB-231 cells were serum starved for 24 h in serum-free medium (DMEM without FBS). After starving 50,000 cells were transferred onto Matrigel pre-coated invasion inserts (upper chamber, BD Biocoat). Lower chambers of plate were filled with complete medium (DMEM and 10% FBS) and cells were allowed to migrate under chemotaxis. […] After incubation cells that had invaded to the opposite side of the Transwell membrane were washed with PBS and fixed in chilled 70% ethanol for 15 min and air dried. Cells were stained with 0.5% crystal violet for 10 min. Cells were washed, dried, and images were captured at 40× magnification.
# [7] = system: caveolin; experiment: Western blot, caveolin expression in breast cancer cells; assay type: cell-based, human; details: MDA-MB-231 and MCF-7 cells, 24 h
# Description: (§2) To determine the effect of novel triarylethylene derivatives on proteins involved in metastasis, and adhesion, whole-cell extracts were prepared by subjecting cells to lysis in RIPA buffer supplemented with protease and phosphatase inhibitor cocktails using previously described methods (Pandey et al., 2014, Exp. Hematol. 42:883-896). Lysates were spun at 15,000 rpm for 10 minutes to remove insoluble material. Supernatant were collected and kept at −80° C. Lysates were resolved by SDS-PAGE. After electrophoresis, the proteins were electro-transferred to PVDF membranes, blotted with the relevant antibodies, and detected by enhanced chemo-luminescence reagent.
# [8] = system: c-Myc; experiment: Western blot, c-Myc expression in breast cancer cells; assay type: cell-based, human; details: MDA-MB-231 and MCF-7 cells, 24 h
# Description: as §2
# [9] = system: MMP-9; experiment: Western blot, MMP-9 expression in breast cancer cells; assay type: cell-based, human; details: MDA-MB-231 and MCF-7 cells, 24 h
# Description: as §2
# [10] = MTT, 72 h, versus Ospemifene and Tamoxifen
Compound,toxicity to normal MEF cells [1],anticancer activity in initial screening [3],times more cytotoxic than Tamoxifen [3],times more effective than Ospemifene [3],"IC50 ([3]; MDA-MB-231, 48 h) [µM]","IC50 ([3]; MDA-MB-231, 96 h) [µM]",anticancer activity in initial screening [4],times more cytotoxic than Tamoxifen [4],times more effective than Ospemifene [4],"IC50 ([4]; MCF7, 48 h) [µM]","IC50 ([4]; MCF7, 96 h) [µM]",also measured
"NCC/C(=C(\c1ccccc1)c1ccc(OCCO)cc1)c1ccccc1 [Compound 6, (Z)-2-{4-(4-amino-1,2-diphenylbut-1-enyl)phenoxy}ethanol]",non-toxic,more potent than Ospemifene,at least five,eight,25,14.5,more potent than Ospemifene,at least five,about five,15.9,12.4,dead cells ([2]; increasing amount of compound): 50-70%
"NCCOc1ccc(/C(=C(/CCN)c2ccccc2)c2ccccc2)cc1 [Compound 7, (Z)-4-{4-(2-aminoethoxy)phenyl}-3,4-diphenylbut-3-en-1-amine]",non-toxic,more potent than Ospemifene,at least five,eight,17.1,13.4,more potent than Ospemifene,at least five,about five,23.6,11.2,cells killed [5]: 70%; cells killed ([2]; 10 μM): 70%
"OCCOc1ccc(/C(=C(/CCCl)c2ccccc2)c2ccccc2)cc1 [Ospemifene, (Z)-2-{4-(4-chloro-1,2-diphenylbut-1-enyl)phenoxy}ethanol, reference compound]",non-toxic,–,–,–,> 100,> 100,–,–,–,> 100,55,"cell death ([4]; initial screening, 25 μM): ~40%"
"(Z)-[4-azido-1-{4-(2-azidoethoxy) phenyl}but-1-ene-1,2-diyl]dibenzene [Compound 5]",–,–,–,–,–,–,–,–,–,–,–,"effect on invasion of ER-negative cells [6]: suppressed the invasion; expression of caveolin [7]: inhibited the expression; expression of c-Myc [8]: inhibited the expression; cytotoxic activity [3, 10]: much more effective than the standards; cytotoxic activity [4, 10]: much more effective than the standards; expression of MMP-9 [9]: inhibited the expression"
